The record followed here is paper doi:10.1101/2024.08.13.607785v1 (biorxiv, 2024).

Test [1] deals with T1, Epithelial discoidin domain-containing receptor 1 ; DDR1 ; Q08345 (Homo sapiens, UniProt Q08345). In words: biochemical. Details: species or system human cell line lysate.
Test [2] concerns the target Isoform 4 of TRAF2 and NCK-interacting protein kinase ; TNIK ; Q9UKE5-4 (Homo sapiens, UniProt Q9UKE5). Put plainly: biochemical. Details: species or system human cell line lysate.
The target of test [3] is T2, Discoidin domain-containing receptor 2 ; DDR2 ; Q16832 (Homo sapiens, UniProt Q16832).
T2 sequence (Q16832 1-855): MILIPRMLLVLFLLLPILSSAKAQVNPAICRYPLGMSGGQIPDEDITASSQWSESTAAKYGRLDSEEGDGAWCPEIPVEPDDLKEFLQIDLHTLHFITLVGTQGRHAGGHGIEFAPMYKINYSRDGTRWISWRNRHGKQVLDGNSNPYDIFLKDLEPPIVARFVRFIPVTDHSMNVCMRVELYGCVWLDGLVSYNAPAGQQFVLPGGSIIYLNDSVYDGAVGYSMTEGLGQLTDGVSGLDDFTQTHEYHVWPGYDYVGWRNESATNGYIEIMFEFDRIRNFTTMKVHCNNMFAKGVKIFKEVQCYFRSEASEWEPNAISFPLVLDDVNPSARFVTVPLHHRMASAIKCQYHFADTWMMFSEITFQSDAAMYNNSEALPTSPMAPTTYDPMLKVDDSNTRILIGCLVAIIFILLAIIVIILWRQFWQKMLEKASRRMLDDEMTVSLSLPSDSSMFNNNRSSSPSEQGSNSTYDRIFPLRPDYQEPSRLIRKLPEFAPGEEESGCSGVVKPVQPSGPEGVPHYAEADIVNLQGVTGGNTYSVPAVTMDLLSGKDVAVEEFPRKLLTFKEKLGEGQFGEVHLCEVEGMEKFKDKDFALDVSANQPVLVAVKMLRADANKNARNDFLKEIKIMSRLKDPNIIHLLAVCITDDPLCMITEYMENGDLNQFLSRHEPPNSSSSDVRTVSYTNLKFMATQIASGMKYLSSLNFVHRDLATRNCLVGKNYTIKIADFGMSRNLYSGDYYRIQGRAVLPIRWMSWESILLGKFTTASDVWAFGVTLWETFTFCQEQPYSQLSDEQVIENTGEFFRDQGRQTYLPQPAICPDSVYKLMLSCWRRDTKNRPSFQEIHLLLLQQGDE
In words: biochemical. Details: species or system human cell line lysate.

In test [4] the target is Calcium/calmodulin-dependent protein kinase kinase 2 ; CAMKK2 ; Q96RR4 (Homo sapiens, UniProt Q96RR4). Put plainly: biochemical. Details: species or system human cell line lysate.
Chain of Calcium/calmodulin-dependent protein kinase kinase 2 ; CAMKK2 ; Q96RR4 (Q96RR4 whole entry, one chain of several): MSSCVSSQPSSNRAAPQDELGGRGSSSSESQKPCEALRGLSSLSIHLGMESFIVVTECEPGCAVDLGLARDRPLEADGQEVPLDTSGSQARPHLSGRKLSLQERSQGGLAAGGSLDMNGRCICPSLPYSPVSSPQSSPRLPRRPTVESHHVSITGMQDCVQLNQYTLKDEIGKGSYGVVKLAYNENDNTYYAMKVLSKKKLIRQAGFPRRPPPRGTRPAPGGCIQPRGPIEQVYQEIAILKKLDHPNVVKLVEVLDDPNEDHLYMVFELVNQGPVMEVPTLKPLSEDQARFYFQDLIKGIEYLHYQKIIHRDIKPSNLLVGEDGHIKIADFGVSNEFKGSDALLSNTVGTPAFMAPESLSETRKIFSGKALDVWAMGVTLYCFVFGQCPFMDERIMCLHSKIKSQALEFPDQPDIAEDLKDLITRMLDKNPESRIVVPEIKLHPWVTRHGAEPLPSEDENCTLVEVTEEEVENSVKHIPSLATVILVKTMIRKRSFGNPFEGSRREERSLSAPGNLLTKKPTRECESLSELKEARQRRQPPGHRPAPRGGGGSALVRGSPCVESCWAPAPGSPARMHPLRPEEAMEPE
In test [5] the target is Cyclin-dependent kinase 12 ; CDK12 ; Q9NYV4 (Homo sapiens, UniProt Q9NYV4). Put plainly: biochemical. Details: species or system human cell line lysate.
Test [6] has as its target Cyclin-dependent kinase 6 ; CDK6 ; Q00534 (Homo sapiens, UniProt Q00534). In words: biochemical. Details: species or system human cell line lysate.
Test [7] concerns the target Cyclin-dependent kinase 10 ; CDK10 ; Q15131 (Homo sapiens, UniProt Q15131). In words: biochemical. Details: species or system human cell line lysate.
The target in test [8] is Cyclin-dependent-like kinase 5 ; CDK5 ; Q00535 (Homo sapiens, UniProt Q00535). Put plainly: biochemical. Details: species or system human cell line lysate.
Chain of Cyclin-dependent-like kinase 5 ; CDK5 ; Q00535 (Q00535 whole entry, one chain of several): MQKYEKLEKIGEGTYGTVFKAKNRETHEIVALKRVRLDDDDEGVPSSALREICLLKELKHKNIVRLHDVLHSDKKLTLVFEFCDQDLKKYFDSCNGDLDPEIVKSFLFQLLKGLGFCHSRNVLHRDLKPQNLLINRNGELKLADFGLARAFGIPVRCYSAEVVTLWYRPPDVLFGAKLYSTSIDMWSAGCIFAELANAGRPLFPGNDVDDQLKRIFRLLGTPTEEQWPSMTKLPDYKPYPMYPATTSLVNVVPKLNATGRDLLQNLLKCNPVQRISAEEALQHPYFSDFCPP
The target in test [9] is Cyclin-dependent kinase 7 ; CDK7 ; P50613 (Homo sapiens, UniProt P50613). In words: biochemical. Details: species or system human cell line lysate.
Chain of Cyclin-dependent kinase 7 ; CDK7 ; P50613 (P50613 whole entry, the tested form may be a part, one chain of several): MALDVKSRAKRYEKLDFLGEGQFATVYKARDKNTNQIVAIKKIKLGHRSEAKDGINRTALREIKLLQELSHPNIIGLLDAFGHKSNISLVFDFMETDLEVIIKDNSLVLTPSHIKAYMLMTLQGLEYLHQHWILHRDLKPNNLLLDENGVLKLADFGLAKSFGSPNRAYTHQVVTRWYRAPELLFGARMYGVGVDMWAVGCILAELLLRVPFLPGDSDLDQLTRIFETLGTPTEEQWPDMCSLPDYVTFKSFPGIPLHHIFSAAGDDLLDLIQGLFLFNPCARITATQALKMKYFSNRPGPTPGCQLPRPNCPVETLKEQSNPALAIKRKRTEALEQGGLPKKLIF
Test [10] has as its target LIM domain kinase 1 ; LIMK1 ; P53667 (Homo sapiens, UniProt P53667). Details: species or system mixed lysate of K562, MV4-11, THP-1, NCI-H1155. To be noted: DDA-MS residual binding; binder.
Test [11] concerns the target Tyrosine-protein kinase HCK ; HCK ; P08631 (Homo sapiens, UniProt P08631). Details: species or system mixed lysate of K562, MV4-11, THP-1, NCI-H1155. As to conditions: DDA-MS residual binding; binder.
In test [12] the target is T1, Epithelial discoidin domain-containing receptor 1 ; DDR1 ; Q08345. Details: species or system mixed lysate of K562, MV4-11, THP-1, NCI-H1155. To be noted: binder.
In test [13] the target is Receptor-interacting serine/threonine-protein kinase 2 ; RIPK2 ; O43353 (Homo sapiens, UniProt O43353). Details: species or system mixed lysate of K562, MV4-11, THP-1, NCI-H1155. To be noted: DDA-MS residual binding; binder.
Test [14] addresses Mitogen-activated protein kinase kinase kinase 4 ; MAP3K4 ; Q9Y6R4 (Homo sapiens, UniProt Q9Y6R4). Details: species or system mixed lysate of K562, MV4-11, THP-1, NCI-H1155. As to conditions: binder.

T1 sequence (Q08345 whole entry, the tested form may be a part, canonical isoform): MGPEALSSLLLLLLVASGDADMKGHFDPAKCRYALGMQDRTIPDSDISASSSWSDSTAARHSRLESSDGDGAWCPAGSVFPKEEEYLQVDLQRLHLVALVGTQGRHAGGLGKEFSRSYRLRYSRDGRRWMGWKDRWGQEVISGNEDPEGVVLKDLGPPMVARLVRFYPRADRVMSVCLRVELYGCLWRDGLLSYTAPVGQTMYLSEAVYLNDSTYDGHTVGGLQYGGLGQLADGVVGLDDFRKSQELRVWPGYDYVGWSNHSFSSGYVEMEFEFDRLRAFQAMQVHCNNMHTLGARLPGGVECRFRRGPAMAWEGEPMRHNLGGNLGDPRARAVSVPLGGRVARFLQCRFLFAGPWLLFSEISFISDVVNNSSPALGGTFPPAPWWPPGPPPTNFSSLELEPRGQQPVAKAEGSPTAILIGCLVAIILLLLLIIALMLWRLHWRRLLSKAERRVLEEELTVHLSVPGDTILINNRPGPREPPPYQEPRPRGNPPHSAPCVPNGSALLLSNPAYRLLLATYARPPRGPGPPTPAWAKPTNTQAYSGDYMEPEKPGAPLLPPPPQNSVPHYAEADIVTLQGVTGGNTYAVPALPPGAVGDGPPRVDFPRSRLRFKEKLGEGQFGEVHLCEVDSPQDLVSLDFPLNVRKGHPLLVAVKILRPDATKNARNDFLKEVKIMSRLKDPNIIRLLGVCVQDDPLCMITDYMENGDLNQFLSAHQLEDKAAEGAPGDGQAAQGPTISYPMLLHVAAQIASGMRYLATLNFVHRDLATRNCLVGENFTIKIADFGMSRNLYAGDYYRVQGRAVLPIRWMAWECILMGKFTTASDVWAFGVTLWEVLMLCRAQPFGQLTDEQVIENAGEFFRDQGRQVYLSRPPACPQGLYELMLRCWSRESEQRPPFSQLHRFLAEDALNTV
Chain of Cyclin-dependent kinase 6 ; CDK6 ; Q00534 (Q00534 whole entry, one chain of several): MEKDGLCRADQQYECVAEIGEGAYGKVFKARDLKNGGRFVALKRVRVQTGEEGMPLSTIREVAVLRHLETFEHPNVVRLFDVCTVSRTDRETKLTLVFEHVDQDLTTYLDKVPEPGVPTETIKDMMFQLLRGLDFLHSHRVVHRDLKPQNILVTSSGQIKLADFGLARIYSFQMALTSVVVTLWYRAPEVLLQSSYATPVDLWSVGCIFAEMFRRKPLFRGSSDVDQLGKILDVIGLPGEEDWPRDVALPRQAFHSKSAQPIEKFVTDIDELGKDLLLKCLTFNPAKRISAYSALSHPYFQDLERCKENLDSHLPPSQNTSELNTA
Chain of Isoform 4 of TRAF2 and NCK-interacting protein kinase ; TNIK ; Q9UKE5-4 (Q9UKE5 whole entry, the tested form may be a part, canonical isoform, one chain of several): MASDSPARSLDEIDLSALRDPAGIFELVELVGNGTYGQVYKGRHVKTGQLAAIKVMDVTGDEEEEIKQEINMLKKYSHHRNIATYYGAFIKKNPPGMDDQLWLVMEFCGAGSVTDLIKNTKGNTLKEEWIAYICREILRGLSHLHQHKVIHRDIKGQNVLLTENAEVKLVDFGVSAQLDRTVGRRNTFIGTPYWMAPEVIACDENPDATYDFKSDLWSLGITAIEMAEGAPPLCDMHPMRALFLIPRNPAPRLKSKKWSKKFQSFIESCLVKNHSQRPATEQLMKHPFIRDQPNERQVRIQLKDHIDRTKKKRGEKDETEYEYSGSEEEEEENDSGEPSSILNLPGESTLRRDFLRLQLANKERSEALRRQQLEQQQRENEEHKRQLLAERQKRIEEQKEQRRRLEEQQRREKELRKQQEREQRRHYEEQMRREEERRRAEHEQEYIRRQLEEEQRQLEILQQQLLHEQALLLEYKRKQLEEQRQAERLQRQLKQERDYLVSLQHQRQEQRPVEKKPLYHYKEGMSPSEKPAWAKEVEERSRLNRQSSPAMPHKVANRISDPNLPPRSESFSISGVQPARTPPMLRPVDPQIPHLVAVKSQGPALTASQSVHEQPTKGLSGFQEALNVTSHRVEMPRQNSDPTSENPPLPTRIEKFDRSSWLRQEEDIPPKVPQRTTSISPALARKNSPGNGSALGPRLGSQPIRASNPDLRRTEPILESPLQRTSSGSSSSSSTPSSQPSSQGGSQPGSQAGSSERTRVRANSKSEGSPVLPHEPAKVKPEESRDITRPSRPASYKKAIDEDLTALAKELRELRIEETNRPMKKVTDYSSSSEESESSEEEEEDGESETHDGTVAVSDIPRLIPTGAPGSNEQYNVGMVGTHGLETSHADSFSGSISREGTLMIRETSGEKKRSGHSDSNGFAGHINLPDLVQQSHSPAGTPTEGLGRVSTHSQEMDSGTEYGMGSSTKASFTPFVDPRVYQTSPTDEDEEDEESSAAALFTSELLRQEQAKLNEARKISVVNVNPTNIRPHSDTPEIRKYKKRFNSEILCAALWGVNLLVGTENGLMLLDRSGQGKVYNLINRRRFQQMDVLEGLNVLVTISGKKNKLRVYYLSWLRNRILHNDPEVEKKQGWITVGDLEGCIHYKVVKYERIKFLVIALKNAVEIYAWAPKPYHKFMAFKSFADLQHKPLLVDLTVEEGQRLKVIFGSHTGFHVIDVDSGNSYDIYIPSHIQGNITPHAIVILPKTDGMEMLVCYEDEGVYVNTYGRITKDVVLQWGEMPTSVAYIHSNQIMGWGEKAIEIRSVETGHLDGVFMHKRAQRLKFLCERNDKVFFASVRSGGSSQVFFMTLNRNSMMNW
Chain of Cyclin-dependent kinase 10 ; CDK10 ; Q15131 (Q15131 whole entry, one chain of several): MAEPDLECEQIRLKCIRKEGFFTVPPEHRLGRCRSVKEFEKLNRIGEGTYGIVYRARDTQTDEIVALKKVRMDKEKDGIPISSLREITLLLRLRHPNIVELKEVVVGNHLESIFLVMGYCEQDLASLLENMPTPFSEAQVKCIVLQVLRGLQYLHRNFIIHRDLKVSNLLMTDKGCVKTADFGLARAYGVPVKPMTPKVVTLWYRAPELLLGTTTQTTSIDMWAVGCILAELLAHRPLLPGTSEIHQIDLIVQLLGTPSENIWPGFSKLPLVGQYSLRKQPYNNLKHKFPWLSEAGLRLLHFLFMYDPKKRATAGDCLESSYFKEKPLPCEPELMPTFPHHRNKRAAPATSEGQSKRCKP
Chain of LIM domain kinase 1 ; LIMK1 ; P53667 (P53667 whole entry, the tested form may be a part): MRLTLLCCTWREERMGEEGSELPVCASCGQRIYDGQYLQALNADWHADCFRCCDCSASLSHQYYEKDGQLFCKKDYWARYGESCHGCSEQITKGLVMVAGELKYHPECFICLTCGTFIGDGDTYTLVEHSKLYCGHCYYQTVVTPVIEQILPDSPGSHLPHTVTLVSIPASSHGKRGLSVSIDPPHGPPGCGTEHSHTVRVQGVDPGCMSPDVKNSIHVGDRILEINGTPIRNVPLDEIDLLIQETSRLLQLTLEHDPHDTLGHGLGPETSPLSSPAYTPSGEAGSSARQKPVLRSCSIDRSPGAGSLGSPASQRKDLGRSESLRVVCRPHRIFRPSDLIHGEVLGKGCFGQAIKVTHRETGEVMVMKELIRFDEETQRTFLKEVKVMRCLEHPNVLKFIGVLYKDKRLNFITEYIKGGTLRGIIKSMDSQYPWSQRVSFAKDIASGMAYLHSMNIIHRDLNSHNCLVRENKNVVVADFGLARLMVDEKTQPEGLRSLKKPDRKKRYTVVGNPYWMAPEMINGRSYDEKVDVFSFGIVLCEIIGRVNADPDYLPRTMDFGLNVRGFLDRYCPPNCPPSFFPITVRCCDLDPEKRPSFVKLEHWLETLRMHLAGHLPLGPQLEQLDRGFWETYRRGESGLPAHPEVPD

For orientation: IC50 means the concentration that inhibits the measured activity by half. Take `COc1cc(F)ccc1-c1ncnc(Nc2cccc(C[S@](C)(=N)=O)c2)n1` [BAY-1143572]: the IC50 in [1], in test [2], in test [3], in test [4] and in [5] was greater than 10 µM each time.
As to `COc1cc(F)ccc1-c1cc(Nc2cc(CS(C)(=N)=O)ccn2)ncc1F` (centres unmarked) [BAY-1251152], the concentration for half-maximal inhibition (IC50) is greater than 10 µM in [6], 1.09 µM in test [7], greater than 10 µM in [8] and greater than 10 µM in [9].
Turning to `Cc1nc(Nc2ncc(C(=O)Nc3c(C)cccc3Cl)s2)cc(N2CCN(CCO)CC2)n1` [dasatinib], the “DDA-MS / % Intensity (30 µM/DMSO)” value in [10] came out at 23.79%; in test [11] it was 2.041%; in [12], 4.526%; in test [13], 1.02%; in test [14] it was 9.795%.
